The record followed here is patent US12180146B2, “Antihypertensive polyol compound and derivative thereof” (TAO PHARMACEUTICAL (SUZHOU) CO., LTD, priority 2020, dated 2024).

Experiment [1] has as its system monocrotaline-induced pulmonary hypertension model rats (MCT-PAH). The experiment is described as follows: Monocrotaline-induced pulmonary hypertension model rats, oral (gavage) treatment for 21 days. The conditions noted are these: 100 mg/kg. It is filed as in vivo, SD rats. From the text:
Monocrotaline (MCT) was subcutaneously injected to establish an animal model of pulmonary hypertension in SD rats. At the same time, compound 1 was given by gavage for treatment. The pulmonary artery hemodynamics and right heart hypertrophy index RVHI of the rates were detected to determine whether the oral administration of compound 1 has effects of improving Monocrotaline induces pulmonary hypertension.
(§1) SD rats (purchased from Shanghai Xipuer-Bikai Experimental Animal Co., Ltd.), male, weighing 180-200 g, were bred in an artificially controlled animal room with each 12 hours of light and darkness at a temperature of 20-25° C. and relative humidity of 50-60%, and allowed ad libitum to food and water. The rats were randomly divided into groups according to the experimental requirements, and kept separately in cages, with 3 to 4 rats per cage. All relevant operations of animal experiments are in compliance with the provisions of “Guidelines for the Management and Use of Laboratory Animals” of China.
During the experiment, SD rats were randomly divided into 4 groups: blank control group, pulmonary hypertension model group, Selexipag (1 mg/kg) treatment group and compound 1 (100 mg/kg) group with 6 rats in each group, and the concentration in brackets represents the administration concentration of the compound, in which Selexipag is a new oral long-acting prostacyclin receptor agonist discovered and synthesized by Japan New Drug Co., Ltd. On the first day of the experiment, normal saline was injected subcutaneously into the back of neck of rats in the blank control group, and monocrotaline (Chengdu Purifa Biotechnology Co., Ltd.) solution was injected in the rats in other groups at a dosage of 60 mg/kg. Both the positive drug, Selexipag and Compound 1 were administered by gavage. Selexipag and […] were dissolved in 0.5% CMC-Na solution. The rats were continuously administered for 21 days with a volume of […]. The rats in the control and model groups were given the corresponding volume of CMC-Na solution by gavage. Specific groupings can be found in Table 7.
After the administration, the pulmonary vascular hemodynamics and RVHI was determined according to the same experiment method as that in Example 1.

For experiment [2] the test system is unchanged. The experiment in a line: Monocrotaline-induced pulmonary hypertension model rats, aerosol inhalation treatment. Format: in vivo, SD rats. The conditions noted are these: inh, 28 days. The method, then:
A pulmonary hypertension animal model of SD rats was established by subcutaneous injection of monocrotaline (MCT). The compound 1 was administered by aerosol inhalation for treatment. The pulmonary artery hemodynamics and right heart hypertrophy index RVHI of rats were tested to determine whether compound 1 administered by aerosol inhalation has effects of improving monocrotaline-induced pulmonary hypertension.
as §1
In the second experiment, the rats were divided into 5 groups, namely the control group, model group, positive control Tyvaso (1.62 μg/kg) group, compound 1 (10 mg/kg) group and compound 1 (30 mg/kg) group. On the first day of the experiment, normal saline was injected subcutaneously into the back of the neck of the rats in the blank control group, and monocrotaline (Chengdu Purifa Biotechnology Co., Ltd.) solution was injected in the other groups at a dosage of 60 mg/kg. Compound 1 and Tyvaso were administered by aerosol inhalation, that is, the compound was firstly dissolved in physiological saline, and then the solution was prepared into an aerosol with a nebulizer to be inhaled into the mouth and nose of rats. The rats in the control group and the model group only inhaled an aerosol made of physiological saline. The rats were continuously administered for 28 days, and the concentration in the parentheses of the group name represents the administered concentration of the compound. Specific groupings can be found in Table 9. After the administration, the pulmonary vascular hemodynamics and RVHI were determined in the same way as the experiment method in Example 1.

In the case of `CCc1cccc(C(O)CO)c1` (stereo not drawn) [Compound 1, 1-(3-ethylphenyl)-1,2-ethylene glycol], the “2 × MT/ED” value in experiment [1] came out at 0.27 ± 0.062; in experiment [2] (10 mg/kg), 0.335 ± 0.034; in experiment [2] (30 mg/kg), 0.319 ± 0.035. Also, the RVHI in experiment [1] came to 0.31 ± 0.059; in experiment [1] (listed as compound 1, 100 mg/kg), 0.31±0.059; in experiment [2] (10 mg/kg), 0.235 ± 0.026; in experiment [2] (10 mg/kg, listed as compound 1, 10 mg/kg) it was 0.235±0.026; in experiment [2] (30 mg/kg) it was 0.204 ± 0.035; in experiment [2] (30 mg/kg, listed as compound 1, 30 mg/kg), 0.204±0.035. In addition, the RVSP in experiment [1] is recorded as 39.72 ± 3.46 mmHg; in experiment [2] (10 mg/kg), 35.92 ± 3.74 mmHg; in experiment [2] (30 mg/kg), 31.18 ± 4.62 mmHg. Also, the mPAP in experiment [1] amounted to 9.21 ± 2.69 mmHg; in experiment [2] (10 mg/kg) it was 11.46 ± 2.48 mmHg; in experiment [2] (30 mg/kg), 8.06 ± 2.59 mmHg.
